According to patent US4621077A, “Pharmacologically active biphosphonates, process for the preparation thereof and pharmaceutical compositions therefrom” (Istituto Gentili S.p.A., priority 1982, dated 1986):
Several values for one entry are separate records, joined by “and”; a condition that tells them apart may be missing. Equal values may be shown once. Read-outs that look alike come from different tables or passages of the source.

What was measured:
skull cells = assay: cells; assay type: cell-based, Wistar rats; conditions: Rattus norvegicus, read-out: Effect on the cellular number ± S.E.M.
Method: (§1) Cellular culture: the cells are cultured according to the method described by Fast et al, (Biochem. J. 172, 97-107 (1978)). By way of summary, the skulls removed from Wistar rats, one day old, are digested with collagenase. The cells set free are placed on a plate with concentration of 200,000 cells per cc of medium in disks "clusters" suitable for culture, the plates having 24 wells of 1.6 cm in diameter containing 0.5 cc of medium. The cells are cultivated in the essential minimum medium containing 10% of foetal calf serum in an atmosphere of 5% CO2 at 37° up to the eighth day. The bisphosphonates are added on the first day up to the end of the experiment. The medium is changed on the first, fourth and seventh day.
The cells are counted with a Coulter counter after they have been set free from the disks by digestion with a mixture of collagenase and trypsin.

[1] = system: skull cells (lactate production); assay: cells; assay type: cell-based, Wistar rats; conditions: Rattus norvegicus, 16 h, read-out: Effect on the production of lactate ± S.E.M.
Method: as §1
On the seventh day, the medium is changed and the cells are incubated for 16 hours. The lactate produced during this period is measured in an extract in HClO4 of the medium using lactatodehydrogenase.

[2] = system: patients with primary hyperparathyroidism
Method: The substance ABDP, aminobutanediphosphonate has been used for venous infusion, 0.5-25 mg/day dissolved in 500 cc of 5% glucose solution in the following conditions:
Eight individuals having different degrees of calcemia varying to the extent of 17-11 mg%, were treated.

[3] = system: patients with Paget's disease
Method: (§2) The substance ABDP, aminobutanediphosphonate has been used for venous infusion, 0.5-25 mg/day dissolved in 500 cc of 5% glucose solution in the following conditions: […]

[4] = system: patients with widespread neoplastic osteolysis; conditions: six patients, 4 mg/day
Method: as §2

[5] = system: bone reabsorption (metaphyseal bone density); assay: Metaphyseal bone density / inhibition of bone reabsorption in rats treated for 7 days; assay type: in vivo; conditions: for metaphysical density: 7 days, rats
[6] = system: inhibition of the bone reabsorption
[7] = system: patients with tumoral osteolysis
injection sites / skin = assay: Necrosis at the injection sites in rats (local skin toxicity)
Excerpt: The symbol "x" represents a conventional score, that is "x" meand slight necrosis, "xx" means severe necrosis, "xxx" means very severe necrosis.

[8] = system: patients with tumoral osteolysis; conditions: comparison stated for other bisphosphonates, no own test shown; cited from earlier work
Solubility in water = assay type: physicochemical
[9] = two patients, 50 mg, three days

NCCCC(O)(P(=O)(O)O)P(=O)(O)O [AHBU BP, 4-amino-1-hydroxybutan-1,1-biphosphonic acid]
activity at 2.5 µM (skull cells): 100 ± 1.6% | activity at 25 µM (skull cells): 101 ± 1.5% | activity at 250 µM (skull cells): 74.2 ± 4.7% | activity at 2.5 µM [1]: 88 ± 1.5% | activity at 25 µM [1]: 79.6 ± 4.1% | activity at 250 µM [1]: 180 ± 18.6% | times more active than Cl2 MDP ([2]; comparison in patients with primary hyperparathyroidism, Cl2 MDP data from Adami et al, 1983): 20-100 times | calcemia and hydroxyprolinuria ([2]; four patients, 4-8 mg/day, 3-4 days): the decrease of calcemia has been transitory, with the values of calcemia and the hydroxyprolinuria having a tendency to return to the basal values a few days after the suspension of the drug | calcemia ([2]; one case with border line calcemia, 4 mg/day for four days): has not caused any variation in the calcemia even if it is accompanied by a persistent reduction in the calcemia | calcemia ([2]; seven patients with very elevated calcemia, venous infusion): a drastic reduction of calcemia was achieved up to normal values in five of the patients | hydroxyprolinuria ([2]; simultaneous with decrease of calcemia): rapid and parallel decrease of hydroxyprolinuria | calcemia ([2]; three cases, 25 mg/day for seven days): normalization of calcemia up to the day of surgical intervention | hydroxyprolinuria and alkaline phosphatemia at follow-up ([3]; after 6-8 months): normal values of hydroxyprolinuria and alkaline phosphatemia | alkaline phosphatemia ([3]; three patients, 4 mg or 0.5 mg per day): gradual decrease up to normal values after 3-4 months of therapeutic cycle | days of treatment after which painful bone symptoms decreased [4]: 5 to 8 days | calciuria ([4]; two weeks): normalization of calciuria | decrease of hydroxyprolinuria ([4]; in five days): 50-80% | times superior activity versus AHPrBP (inhibition of bone reabsorption) ([5]; in vivo in rats): about 100 times | times more active than Cl2 MDP (inhibition of the bone reabsorption) ([6]; clinical, overall conclusion): 100-300 times | activity on the immunity system ([6]; detailed observations in comparison not available yet): the activity on the immunity system appears to be peculiar to ABDP | fever after administration ([7]; human, in vivo): not been followed by fever | effect of treatment [7, 9]: surprisingly every effective | period of remission of the symptoms [7, 9]: surprisingly long

NCCC(O)(P(=O)(O)O)P(=O)(O)O [AHPrBP, 3-amino-1-hydroxypropylidene-1,1-bisphosphonate]
metaphysical density ([5]; 0.01 mg P/kg s.c., s.c. NaCl controls 29.72): 39.53 % volume of calcified tissue | metaphysical density ([5]; 0.1 mg P/kg s.c., s.c. NaCl controls 29.72): 50.31 % volume of calcified tissue | metaphysical density ([5]; 2.0 mg P/kg p.o., p.o. NaCl controls 28.45): 33.72 % volume of calcified tissue | necrosis at the injection sites (injection sites / skin; 0.01 mg P/kg, 1 day): .0. | necrosis at the injection sites (injection sites / skin; 0.01 mg P/kg, 2 day): .0. | necrosis at the injection sites (injection sites / skin; 0.01 mg P/kg, 3 day): .0. | necrosis at the injection sites (injection sites / skin; 0.01 mg P/kg, 4 day): .0. | necrosis at the injection sites (injection sites / skin; 0.01 mg P/kg, 5 day): .0. | necrosis at the injection sites (injection sites / skin; 0.01 mg P/kg, 6 day): .0. | necrosis at the injection sites (injection sites / skin; 0.01 mg P/kg, 7 day): .0. | necrosis at the injection sites (injection sites / skin; 0.1 mg P/kg, 1 day): .0. | necrosis at the injection sites (injection sites / skin; 0.1 mg P/kg, 2 day): .0. | necrosis at the injection sites (injection sites / skin; 0.1 mg P/kg, 3 day): .0. | necrosis at the injection sites (injection sites / skin; 0.1 mg P/kg, 4 day): .0. | necrosis at the injection sites (injection sites / skin; 0.1 mg P/kg, 5 day): .0. | necrosis at the injection sites (injection sites / skin; 1 mg P/kg, 1 day): xxx and .0. | necrosis at the injection sites (injection sites / skin; 1 mg P/kg, 2 day): xxx and .0. | necrosis at the injection sites (injection sites / skin; 1 mg P/kg, 3 day): .0. | necrosis at the injection sites (injection sites / skin; 10 mg P/kg, 1 day): xxx | necrosis at the injection sites (injection sites / skin; 10 mg P/kg, 2 day): xxx | local / topical skin toxicity, in words (injection sites / skin; rat, in vivo): The most toxic substance | fever after administration [8]: occurs very frequently

O=P(O)(O)C(F)(F)P(=O)(O)O [Example 6, trisodium difluoromethanebiphosphonate]
solubility in water (Solubility in water): soluble in water

O=P(O)(O)C(F)(F)P(=O)(O)O [Example 8, lysine difluoromethanebiphosphonate]
solubility in water (Solubility in water): very soluble in water
